Measurements reported in ChEMBL document CHEMBL1140742, “Discovery of novel chemotypes to a G-protein-coupled receptor through ligand-steered homology modeling and structure-based virtual screening” (J Med Chem, 2008).

Target: T1, Melanin-concentrating hormone receptor 1 (Homo sapiens, UniProt Q99705)
Assay: Displacement of [125I]MCH from human MCHR1 expressed in CHO cell membranes at 5 ug/ml

T1 sequence (Q99705 whole entry): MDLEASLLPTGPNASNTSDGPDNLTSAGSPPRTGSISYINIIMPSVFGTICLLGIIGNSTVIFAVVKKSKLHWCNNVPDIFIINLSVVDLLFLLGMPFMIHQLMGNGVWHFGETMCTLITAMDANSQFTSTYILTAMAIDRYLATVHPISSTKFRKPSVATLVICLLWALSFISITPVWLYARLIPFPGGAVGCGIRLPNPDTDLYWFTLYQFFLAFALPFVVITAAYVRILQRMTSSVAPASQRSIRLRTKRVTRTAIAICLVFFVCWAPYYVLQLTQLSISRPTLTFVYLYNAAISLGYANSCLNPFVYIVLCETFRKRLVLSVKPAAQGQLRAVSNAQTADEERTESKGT

SMILES	inhibition
O=C(c1cc2sccc2n1Cc1ccc(F)cc1)N(CCCN1CCOCC1)Cc1cccnc1	44%
COc1ccccc1Nc1nc(N)nc(CN(C)C2CCCCC2)n1	0%
CCOc1ccccc1Nc1nc(N)nc(CN(C)C2CCCCC2)n1	16%
CCC(=O)Oc1ccc(NC2=NS(=O)(=O)c3ccccc32)cc1	31%
CCCn1c(-c2ccc(-c3ccccc3)cc2)c(C(C)=O)n2c3ccccc3nc12	18%
CCOc1ccc(Nc2nc(N)nc(CN(C)C3CCCCC3)n2)cc1	3%
COc1ccc(Nc2nc(N)nc(CN(C)C3CCCCC3)n2)cc1	0%
Cc1ccc(S(=O)(=O)CN(CS(=O)(=O)c2ccc(C)cc2)c2ccc(Br)cc2F)cc1	10%
CCOc1ccc(NC2=NS(=O)(=O)c3cc([N+](=O)[O-])ccc32)cc1	4%
O=C(Nc1ccccc1)c1c(-c2ccccc2)n(Cc2ccccc2)c2nc3ccccc3n12	15%
COc1cc(C(=O)Oc2ccc(N(Cc3cccs3)C3=NS(=O)(=O)c4ccccc43)cc2)cc(OC)c1OC	10%
COc1ccccc1CN(C(=O)c1cc2sccc2n1C)C1CC(C)(C)NC(C)(C)C1	3%
COc1cc(CN(CCCn2ccnc2)C(=O)c2cc3sccc3n2C)cc(OC)c1	0%
COc1ccc(-c2cn3c4ccccc4nc3n2CCCN2CCOCC2)cc1	0%

Target: T1, Melanin-concentrating hormone receptor 1
Assay: Displacement of [125I]MCH from human MCHR1 expressed in CHO cell membranes

SMILES	Ki
CC(C)N(CCCNC(=O)c1cc2sccc2n1C)Cc1ccccc1	20.9 µM
COc1ccc(/C=C2/SC(=S)N(CCCC(=O)OCCN(C)C)C2=O)cc1	8.1 µM
CCN(CC)Cc1cc(N=C2NS(=O)(=O)c3ccccc32)ccc1OC(=O)c1ccc(OC)cc1	11.3 µM
Cc1ccc(S(=O)(=O)CN(Cc2ccccc2)CS(=O)(=O)c2ccc(C)cc2)cc1	7.5 µM
CCCCCCN(CS(=O)(=O)c1ccc(C)cc1)CS(=O)(=O)c1ccc(C)cc1	1.7 µM
Cc1ccccc1Nc1nc(N)nc(CN(C)Cc2cccc(Cl)c2)n1	7.8 µM
Cc1ccccc1SCN(CCc1ccccc1)CSc1ccccc1C	7.5 µM
CCN(CC)CCCn1c(-c2ccc(Br)cc2)cn2c3ccccc3nc12	11.9 µM
